{"source": "patent US11878070B2", "about": "“Silk-based moisturizer compositions and methods thereof” (Evolved By Nature, Inc., priority 2015, dated 2024)", "assay_type_in_all_cases": "physicochemical", "key": {"[1]": {"test": "HPLC chromatograms of samples comprising vitamin C (degradation products)", "conditions": "after 1 hour at ambient conditions without chemical stabilization", "protocol": "No degradation products were visible.\nNo degradation products were visible. FIG. 59 is a table summarizing the vitamin C concentration in silk protein fragment-films (2% silk films air dried at RT) of the present disclosure. In FIG. 59 processing conditions included 100° C. extraction for 20 min, RT rinse, LiBr in 60° C. oven for 4-6 hours, FIG. 60 is a table summarizing the stability of vitamin C in chemically stabilized solutions. FIGS. 89A-89B are tables summarizing vitamin C stability in SPF gels without chemical stabilizers as compared to chemically stabilized vitamin C in competitive anti-aging skincare products. […] Without wishing to be bound by theory, it appears there is a relationship between vitamin C concentration, silk concentration, and gelation. An increase in vitamin C at a given concentration of silk will result in a longer time to gelation or inhibit gelation. This may be due to the vitamin C molecule physically blocking interaction between silk protein fragments or cross-linking of silk protein."}, "[2]": {"test": "Dissolution of vitamin C derivative in aqueous silk solution", "source_text": "Ascorbyl tetraisopalmitate is a highly viscous, oil soluble liquid that might need the help of an emulsifier to possible dissolve in aqueous silk solution."}, "[3]": {"test": "Silk gel formation (days to gelation / time to gel)", "conditions": "100 mg of vitamin C derivative in 15 mL of 2% silk solution", "source_text": "Samples 1-10 were used to examine the effect of silk to vitamin C ratio on serum gelation. Samples 1-3 with less vitamin C gelled quicker than samples 4 and 5. All other conditions were kept constant. Samples 6-8 with less vitamin C gelled quicker than samples 9 and 10. All other conditions were kept constant. It is concluded that decreasing the ratio of silk to vitamin C (increasing the amount of vitamin C) will lengthen the time to gel creation.\nSamples 1, 3, 6, 8, O-1, O-2, O-3, and O-4 were used to examine the effect of temperature treatment on serum gelation time. Samples 1, 6, O-1, and O-2 were identical other than temperature treatment. Samples 3, 8, O-3, and O-4 were identical other than temperature treatment. The two groups differed in silk to vitamin C ratio. Time to serum gelation was directly related to temperature treatment with a higher temperature resulting in quicker serum gelation.\nAll treatments of silk solution for gel solution were in a conical tube at room temperature unless otherwise stated. […] Temperature affected gel creation time with higher temperatures resulting in quicker gel times. 50° C. treatment gelled in as quick as 2 days, 37° C. treatment gelled in as quick as 3 days, room temperature treatment gelled in 5-8 days and storage in a refrigerator took at least 39 days to gel. The effects of additives on gel creation were dependent on the additive. Vitamin E, Rosemary Oil and Rose Oil all had no effect on gel creation. […] Each also required the presence of vitamin C to gel. Lemon juice from a fresh lemon, pre-squeezed lemon juice from a plastic lemon container and lemon grass oil did affect gel creation. […] Both lemon juice types were able to cause gelation without the presence of vitamin C. This occurred in the same number of days as with vitamin C. The lemongrass oil was able to decrease the number of days to gelation to 2-3 days. Ail additives appeared soluble other than lemongrass oil and rose oil. Rose oil remained in yellow bubbles while the lemongrass oil was partially soluble and formed an albumen like chunk. […]"}}}
{"smiles": "O=C1O[C@H]([C@@H](O)CO)C(O)=C1O", "note": "[vitamin C, L-ascorbic acid]", "values": [{"measurement": "degradation products (HPLC)", "setting": "[1]", "value": "degradation products are visible"}]}
{"smiles": "CCCCCCCCC(CCCCCC)C(=O)OC[C@H](OC(=O)C(CCCCCC)CCCCCCCC)[C@H]1OC(=O)C(OC(=O)C(CCCCCC)CCCCCCCC)=C1OC(=O)C(CCCCCC)CCCCCCCC", "note": "(some centres unmarked) [Ascorbyl tetraisopalmitate, Ascorbyl Tetraisopalmitate]", "values": [{"measurement": "ability to dissolve or be dispersed in aqueous silk solution", "setting": "[2]", "value": "unable to dissolve or be dispersed"}]}
{"smiles": "O=C1O[C@H]([C@@H](O)CO)C([O-])=C1OP(=O)([O-])[O-].[Na+].[Na+].[Na+]", "note": "[Sodium ascorbyl phosphate from Aromantic, Sodium Ascorbyl Phosphate]", "values": [{"measurement": "time to gel formation", "setting": "[3]", "value": "failed to create a gel"}]}
{"smiles": "O=C1O[C@H]([C@@H](O)CO)C(O)=C1O[C@H]1O[C@H](CO)[C@@H](O)[C@H](O)[C@H]1O", "note": "[Ascorbic acid-2-glucoside, Ascorbic Acid-2-Glucoside]", "values": [{"measurement": "time to gel formation", "setting": "[3]", "value": 3, "unit": "days"}]}
{"smiles": "O=C1O[C@H]([C@@H](O)CO)C([O-])=C1OP(=O)([O-])[O-].[Na+].[Na+].[Na+]", "note": "[Sodium ascorbyl phosphate from DSM, Sodium Ascorbyl Phosphate]", "values": [{"measurement": "time to gel formation", "setting": "[3]", "value": 28, "unit": "days"}]}
